Read-outs that look alike come from different tables or passages of the source. Where a SMILES comes first, the peptide text is derived from it.
How the values were obtained:
[1] = tested on: hepatocytes in vivo; conditions: cited from earlier work
[2] = tested on: other organs than the liver; conditions: in vivo; cited from earlier work
[3] = tested on: HepaRG cells; assay: High-content imaging of HepaRG cells after fluorescent staining of RELA and nuclear DNA; conditions: 16 h treatment; puromycin 100 μg/mL, acarbose 1000 μg/mL, tetracycline 1000 μg/mL, ethylene glycol 100 μg/mL, lithium chloride 1000 μg/mL; FIG. 3
Protocol: The HepG2 cells were cultured in T75 Corning Costar flasks with Dulbecco's modified eagle medium (DMEM) supplemented with 10% fetal bovine serum (FBS) and 1% penicillin-streptomycin. The HepG2 cells were seeded into 384-well black plates with transparent bottom (#781091; Greiner, Kremsmuenster, Austria) at a density of 10.000 cells/cm^2. The HepG2 cells were cultured for three days to attain confluency before overnight compound treatment of sixteen hours. The HepaRG cells were directly seeded at a density of 250.000 cells/cm^2 into 384-well black plates with transparent bottom (#781091; Greiner) coated with 100 μg/mL collagen I. For the first twenty-four hours of cultivation a Williams E medium, supplemented with HepaRG Thaw, Plate & General Purpose medium was used. […]
Screening was performed by using a dose-range of the following seven concentrations for each compound: 2 μM, 15 μM, 63 μM, 125 μM, 250 μM, 500 μM and 1 mM. […] Z′ values of each plate were calculated and values were all above 0.5, ranging from 0.62 to 0.89.
Cells were fixed for six hours with 3.7% formaldehyde in phosphate-buffered saline (PBS) after sixteen hours of compound exposure. […] F-actin was detected on every plate with rhodamine phalloidin (#R415; 1:100; Invitrogen, Singapore). […]

[4] = classification based on literature on compound-induced clinical effects in humans

| Structure (SMILES) | toxicity for hepatocytes in vivo [1, 4] | further results |
| --- | --- | --- |
| CN(C)[C@@H]1C(O)=C(C(N)=O)C(=O)[C@@]2(O)C(O)=C3C(=O)c4c(O)cccc4[C@@](C)(O)[C@H]3C[C@@H]12 [tetracycline] | toxic for hepatocytes in vivo | – |
| Cn1c(=O)c2c(ncn2C)n(C)c1=O [Caffeine] | not toxic | – |
| [Cl-].[Li+] [lithium chloride] | – | toxicity in humans for other organs than the liver [2]: nephrotoxic |
| COC(=O)[C@H](Cc1ccccc1)NC(=O)[C@@H](N)CC(=O)O [Aspartame] (H-Asp-Phe-OMe) | not toxic | – |
| CN1CCCC1c1cccnc1 (centres unmarked) [Nicotine] | – | toxicity for hepatocytes in vivo ([1]; human, in vivo): not toxic |
| C[C@H]1O[C@H](O[C@H]2[C@H](O)[C@@H](O)[C@@H](O[C@H]3[C@H](O)[C@@H](O)C(O)O[C@@H]3CO)O[C@@H]2CO)[C@H](O)[C@@H](O)[C@@H]1N[C@H]1C=C(CO)[C@@H](O)[C@H](O)[C@H]1O (some centres unmarked) [acarbose] | toxic for hepatocytes in vivo | – |
| [Cl][Cd][Cl] [Cadmium Chloride] | toxic | – |
| OCCO [Ethylene glycol, ethylene glycol] | – | toxicity in humans for other organs than the liver [2]: nephrotoxic and neurotoxic; phenotypic changes / altered distribution of RELA (NF-κB p65) in HepaRG cells versus vehicle control [3]: did not induce obvious phenotypic changes |
| COc1ccc(C[C@H](N)C(=O)N[C@H]2[C@@H](O)[C@H](n3cnc4c(N(C)C)ncnc43)O[C@@H]2CO)cc1 [Puromycin, puromycin] | toxic | – |
| Cn1cnc([N+](=O)[O-])c1Sc1ncnc2nc[nH]c12 [Azathioprine] | toxic | – |

— patent publication US11321826B2, “High throughput method for accurate prediction of compound-induced liver injury” (AGENCY FOR SCIENCE, TECHNOLOGY AND RESEARCH, priority 2016, dated 2022)
